Assay results taken from patent US20050080054A1, “Treating androgen decline in aging male (ADAM)-associated conditions with SARMS” (priority 2002, published 2005).

System: myosin heavy chain (MHC) IIb mRNA
Test: Myosin heavy chain (MHC) IIb mRNA expression in masseter muscle by RT-PCR
Type: in vivo, rat
Conditions: masseter muscle of intact female rats; untreated control = 100%
Excerpt: MHC is the predominant protein in skeletal muscle encoded by a multigene family expressed in a tissue-specific and developmentally regulated manner [Adams et al 1999]. In steady state, mRNA expression usually parallels the pattern of MHC protein expression. Because transcription of MHC mRNA occurs in advance of MHC protein translation, and the increased sensitivity of RT-PCR compared to western blotting, rapid changes in mRNA expression can be detected and used to analyze the subtle dynamic effects of muscle anabolism [Wright et al 1997].
The masseter muscle dissected from untreated intact female rats was set as the control level (representing 100%) of MHC IIb expression (FIG. 7A). Intact female rats treated with androgens were evaluated against the untreated controls for the effect of treatment on MHC IIb from masseter.

CC(=O)Nc1ccc(OC[C@](C)(O)C(=O)Nc2ccc([N+](=O)[O-])c(C(F)(F)F)c2)cc1 [Compound VI]
MHC type IIb transcription, of untreated control: 137%
